Measurements: patent US10988465B2, “CXCR4 inhibitors and uses thereof” (X4 Pharmaceuticals, Inc., priority 2016, dated 2021)
Like-named read-outs stand apart in the source and are kept apart here.

Assay: 7-day mouse toxicology study: toxicokinetics (plasma, brain, CSF), 30 mg/kg/day PO
Assay type: in vivo, male C57BL/6 mice
Conditions: for Cmax / Tmax / AUC(0-t) / AUC(0-inf) / half-life: male, C57BL/6, mouse, po
Description: The PO dosing solutions were prepared in 50 mM citrate buffer (pH 4.0) at 3 mg/mL. The blood collection was performed as follows: the animal was anesthetized under isoflurane. Approximately 500 μL blood/time point was collected into K2EDTA tube via cardiac puncture for terminal bleeding. ˜200 μL blood samples were put on ice and centrifuged to obtain plasma sample (2000 g, 5 min under 4° C.) within 15 minutes of collection. ˜300 blood samples were used for hematology assay. The brain collection was performed as follow: a mid-line incision was made in the animal's scalp and skin retracted. The skull overlying the brain was removed. The whole brain was collected, rinsed with cold saline, dried on filtrate paper, weighted, and snap frozen by placing into dry ice. The brain sample was homogenized for 2 min with 3 volumes of PBS (pH 7.4) by Mini-bead-beater before sample extraction.
An aliquot of 10 μL sample was added to 200 μL MeCN containing 10 ng/mL IS (Glipizide). The mixture was vortexed for 10 min and centrifuged at 6,000 rpm for 10 min. An aliquot of 1 μL constitution was injected for LC-MS/MS analysis.
An aliquot of 3 μL sample was added to 70 μL MeCN containing 10 ng/mL IS (Glipizide). The mixture was vortexed for 2 min and centrifuged at 14,000 rpm for 5 min. An aliquot of 1 μL constitution was injected for LC-MS/MS analysis.
The sample was homogenized with 3 volumes (v/w) of PBS. An aliquot of 10 μL sample was added to 200 μL MeCN containing 10 ng/mL IS (Glipizide). The mixture was vortexed for 10 min and centrifuged at 6,000 rpm for 10 min. An aliquot of 1 μL constitution was injected for LC-MS/MS analysis.
The sample analysis was performed on LCMSMS-28 (Triple Quad 6500+) under the following conditions: positive ion, ESI, MRM detection using glipizide as internal standard. HPLC conditions: mobile phase A: H2O/0.025% FA with 1 mM NH4OAc, mobile phase B: MeOH/0.025% FA with 1 mM NH4OAc on Waters X-Bridge BEH C18 (2.1×50 mm, 2.5 μm) column at 60° C.

[1] = CSF, 30 mg/kg, Day 1, CSF, 30 mg/kg PO
[2] = CSF, 30 mg/kg, Day 7, CSF, 30 mg/kg PO
[3] = brain, 30 mg/kg, Day 1, Brain, 30 mg/kg PO
[4] = brain, 30 mg/kg, Day 7, Brain, 30 mg/kg PO
[5] = plasma, 30 mg/kg, Day 1, Plasma, 30 mg/kg PO
[6] = plasma, 30 mg/kg, Day 7, Plasma, 30 mg/kg PO

Cc1cccnc1[C@@H]1CCC[C@H](c2nc3cccc(N4CCN(C)CC4)c3[nH]2)N1C (racemic) [I-3, 2-((2R,6S)-1-methyl-6-(3-methylpyridin-2-yl)piperidin-2-yl)-7-(4-methylpiperazin-1-yl)-1H-benzo[d]imidazole]
AUCCSF/AUCbrain (Day 1, 30 mg/kg PO): 3.55%
AUCCSF/AUCbrain (Day 7, 30 mg/kg PO): 0.325%
Cmax [1]: 11.3 ng/mL
Tmax [1]: 8 h
AUC(0-t) (CSF, 30 mg/kg, Day 1, CSF, 30 mg/kg PO, read-out: AUClast): 151 ng·h/mL
Cmax [2]: 6.42 ng/mL
Tmax [2]: 4 h
AUC(0-t) (CSF, 30 mg/kg, Day 7, CSF, 30 mg/kg PO, read-out: AUClast): 35.5 ng·h/mL
AUC(0-inf) [3]: 8880 ng·h/mL
Cmax [3]: 219 ng/mL
Tmax [3]: 4 h
AUC(0-t) (brain, 30 mg/kg, Day 1, Brain, 30 mg/kg PO, read-out: AUClast): 4260 ng·h/mL
half-life (brain, 30 mg/kg, Day 1, Brain, 30 mg/kg PO, read-out: Terminal t1/2 (converted)): 25 h
AUC(0-inf) [4]: 29500 ng·h/mL
Cmax [4]: 615 ng/mL
Tmax [4]: 1 h
AUC(0-t) (brain, 30 mg/kg, Day 7, Brain, 30 mg/kg PO, read-out: AUClast): 10900 ng·h/mL
half-life (brain, 30 mg/kg, Day 7, Brain, 30 mg/kg PO, read-out: Terminal t1/2 (converted)): 34.4 h
AUC(0-t) (brain, 30 mg/kg, brain, D 1-30 mg/kg, PO, read-out: AUClast (b)): 4260 ng·h/mL
AUC(0-t) (brain, 30 mg/kg/day, brain, D 7-30 mg/kg, PO, read-out: AUClast (b)): 10900 ng·h/mL
half-life (plasma, 30 mg/kg, 7 days Mouse TOX, D 1-30 mg/kg, PO, read-out: t½ (converted)): 2.62 h
AUC(0-inf) [5]: 2370 ng·h/mL
Cmax [5]: 968 ng/mL
Tmax [5]: 0.5 h
AUC(0-t) (plasma, 30 mg/kg, Day 1, Plasma, 30 mg/kg PO, read-out: AUClast): 2370 ng·h/mL
half-life (plasma, 30 mg/kg, Day 1, Plasma, 30 mg/kg PO, read-out: Terminal t1/2 (converted)): 2.62 h
AUC(0-inf) [6]: 3570 ng·h/mL
Cmax [6]: 1210 ng/mL
Tmax [6]: 0.5 h
AUC(0-t) (plasma, 30 mg/kg, Day 7, Plasma, 30 mg/kg PO, read-out: AUClast): 3560 ng·h/mL
half-life (plasma, 30 mg/kg, Day 7, Plasma, 30 mg/kg PO, read-out: Terminal t1/2 (converted)): 3.13 h
AUC(0-t) (plasma, 30 mg/kg, plasma, D 1-30 mg/kg, PO, read-out: AUClast (p)): 2370 ng·h/mL
half-life (plasma, 30 mg/kg/day, 7 days Mouse TOX, D 7-30 mg/kg, PO, read-out: t½ (converted)): 3.13 h
AUC(0-t) (plasma, 30 mg/kg/day, plasma, D 7-30 mg/kg, PO, read-out: AUClast (p)): 3560 ng·h/mL
